In ChEMBL document CHEMBL4507300 (2021):

Legend:
[1] = molecular target: Tyrosine-protein kinase ABL1 (Homo sapiens) (UniProt P00519); settings: Compound concentration 1000.0 nM
[2] = molecular target: 5'-AMP-activated protein kinase catalytic subunit alpha-2 (Homo sapiens) (UniProt P54646); settings: Compound concentration 1000.0 nM
[3] = molecular target: Calcium/calmodulin-dependent protein kinase type 1D (Homo sapiens) (UniProt Q8IU85); settings: Compound concentration 1000.0 nM
[4] = molecular target: Calcium/calmodulin-dependent protein kinase type II subunit gamma (Homo sapiens) (UniProt Q13555); settings: Compound concentration 1000.0 nM
[5] = molecular target: Dual specificity protein kinase CLK3 (Homo sapiens) (UniProt P49761); settings: Compound concentration 1000.0 nM
[6] = molecular target: Macrophage colony-stimulating factor 1 receptor (Homo sapiens) (UniProt P07333); settings: Compound concentration 1000.0 nM
[7] = molecular target: Casein kinase I isoform delta (Homo sapiens) (UniProt P48730); settings: Compound concentration 1000.0 nM
[8] = molecular target: Serine/threonine-protein kinase 17B (Homo sapiens) (UniProt O94768); settings: Compound concentration 1000.0 nM
[9] = molecular target: Dual specificity tyrosine-phosphorylation-regulated kinase 2 (Homo sapiens) (UniProt Q92630); settings: Compound concentration 1000.0 nM
[10] = system: Epidermal growth factor receptor (Homo sapiens), P00533 [G719S]; settings: Compound concentration 1000.0 nM
[11] = molecular target: Eukaryotic translation initiation factor 2-alpha kinase 1 (Homo sapiens) (UniProt Q9BQI3); settings: Compound concentration 1000.0 nM
[12] = molecular target: Ephrin type-A receptor 3 (Homo sapiens) (UniProt P29320); settings: Compound concentration 1000.0 nM
[13] = molecular target: Receptor tyrosine-protein kinase erbB-4 (Homo sapiens) (UniProt Q15303); settings: Compound concentration 1000.0 nM
[14] = molecular target: Mitogen-activated protein kinase 6 (Homo sapiens) (UniProt Q16659); settings: Compound concentration 1000.0 nM
[15] = molecular target: Mitogen-activated protein kinase 4 (Homo sapiens) (UniProt P31152); settings: Compound concentration 1000.0 nM
[16] = system: Fibroblast growth factor receptor 3 (Homo sapiens), P22607 [G697C]; settings: Compound concentration 1000.0 nM
[17] = molecular target: Glycogen synthase kinase-3 beta (Homo sapiens) (UniProt P49841); settings: Compound concentration 1000.0 nM
[18] = molecular target: Homeodomain-interacting protein kinase 2 (Homo sapiens) (UniProt Q9H2X6); settings: Compound concentration 1000.0 nM
[19] = molecular target: Tyrosine-protein kinase JAK1 (Homo sapiens) (UniProt P23458); settings: Compound concentration 1000.0 nM
[20] = system: Mast/stem cell growth factor receptor Kit (Homo sapiens), P10721 [D816H]; settings: Compound concentration 1000.0 nM
[21] = molecular target: Mitogen-activated protein kinase kinase kinase 2 (Homo sapiens) (UniProt Q9Y2U5); settings: Compound concentration 1000.0 nM
[22] = molecular target: Dual specificity mitogen-activated protein kinase kinase 6 (Homo sapiens) (UniProt P52564); settings: Compound concentration 1000.0 nM
[23] = molecular target: MAP kinase-interacting serine/threonine-protein kinase 1 (Homo sapiens) (UniProt Q9BUB5); settings: Compound concentration 1000.0 nM
[24] = molecular target: Serine/threonine-protein kinase mTOR (Homo sapiens) (UniProt P42345); settings: Compound concentration 1000.0 nM
[25] = molecular target: Myosin light chain kinase family member 4 (Homo sapiens) (UniProt Q86YV6); settings: Compound concentration 1000.0 nM
[26] = molecular target: Serine/threonine-protein kinase Nek9 (Homo sapiens) (UniProt Q8TD19); settings: Compound concentration 1000.0 nM
[27] = molecular target: Mitogen-activated protein kinase kinase kinase 14 (Homo sapiens) (UniProt Q99558); settings: Compound concentration 1000.0 nM
[28] = molecular target: Serine/threonine-protein kinase PAK 1 (Homo sapiens) (UniProt Q13153); settings: Compound concentration 1000.0 nM
[29] = molecular target: Serine/threonine-protein kinase PAK 6 (Homo sapiens) (UniProt Q9NQU5); settings: Compound concentration 1000.0 nM
[30] = molecular target: Cyclin-dependent kinase 16 (Homo sapiens) (UniProt Q00536); settings: Compound concentration 1000.0 nM
[31] = molecular target: Calcium-dependent protein kinase 1 (Plasmodium falciparum) (UniProt P62344); settings: Compound concentration 1000.0 nM
[32] = system: Phosphatidylinositol 4,5-bisphosphate 3-kinase catalytic subunit alpha isoform (Homo sapiens), P42336 [H1047L]; settings: Compound concentration 1000.0 nM
[33] = system: Phosphatidylinositol 4,5-bisphosphate 3-kinase catalytic subunit alpha isoform (Homo sapiens), P42336 [H1047Y]; settings: Compound concentration 1000.0 nM
[34] = molecular target: cAMP-dependent protein kinase catalytic subunit beta (Homo sapiens) (UniProt P22694); settings: Compound concentration 1000.0 nM
[35] = molecular target: Membrane-associated tyrosine- and threonine-specific cdc2-inhibitory kinase (Homo sapiens) (UniProt Q99640); settings: Compound concentration 1000.0 nM
[36] = molecular target: cGMP-dependent protein kinase 1 (Homo sapiens) (UniProt Q13976); settings: Compound concentration 1000.0 nM
[37] = molecular target: Serine/threonine-protein kinase Sgk3 (Homo sapiens) (UniProt Q96BR1); settings: Compound concentration 1000.0 nM
[38] = molecular target: SRSF protein kinase 1 (Homo sapiens) (UniProt Q96SB4); settings: Compound concentration 1000.0 nM
[39] = molecular target: Mitogen-activated protein kinase kinase kinase 7 (Homo sapiens) (UniProt O43318); settings: Compound concentration 1000.0 nM
[40] = molecular target: Serine/threonine-protein kinase TBK1 (Homo sapiens) (UniProt Q9UHD2); settings: Compound concentration 1000.0 nM
[41] = molecular target: Serine/threonine-protein kinase ULK2 (Homo sapiens) (UniProt Q8IYT8); settings: Compound concentration 1000.0 nM
[42] = molecular target: Wee1-like protein kinase (Homo sapiens) (UniProt P30291); settings: Compound concentration 1000.0 nM
[43] = molecular target: Serine/threonine-protein kinase 32B (Homo sapiens) (UniProt Q9NY57); settings: Compound concentration 1000.0 nM
Histamine H1 receptor = Histamine H1 receptor (Homo sapiens, UniProt P35367); settings: Compound concentration 10.0 uM
[44] = molecular target: Beta-1 adrenergic receptor (Homo sapiens) (UniProt P08588); settings: Compound concentration 10.0 uM

Sequence of Calcium-dependent protein kinase 1 (Plasmodium falciparum) (P62344 2-524 limits assumed): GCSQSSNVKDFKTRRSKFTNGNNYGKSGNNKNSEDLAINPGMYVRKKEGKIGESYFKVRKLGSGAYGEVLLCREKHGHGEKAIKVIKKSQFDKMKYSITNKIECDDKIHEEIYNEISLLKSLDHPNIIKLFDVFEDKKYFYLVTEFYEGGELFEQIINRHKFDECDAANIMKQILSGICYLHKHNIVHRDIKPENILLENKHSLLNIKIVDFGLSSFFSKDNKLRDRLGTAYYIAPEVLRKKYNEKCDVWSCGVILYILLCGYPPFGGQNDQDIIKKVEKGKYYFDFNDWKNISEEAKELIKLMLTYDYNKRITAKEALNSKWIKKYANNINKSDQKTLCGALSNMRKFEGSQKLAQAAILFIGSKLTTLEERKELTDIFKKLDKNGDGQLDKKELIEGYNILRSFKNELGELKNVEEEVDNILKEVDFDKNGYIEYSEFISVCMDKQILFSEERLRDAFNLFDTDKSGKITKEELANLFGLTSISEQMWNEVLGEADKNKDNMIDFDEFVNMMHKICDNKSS
Sequence of Serine/threonine-protein kinase ULK2 (Homo sapiens) (Q8IYT8 whole entry): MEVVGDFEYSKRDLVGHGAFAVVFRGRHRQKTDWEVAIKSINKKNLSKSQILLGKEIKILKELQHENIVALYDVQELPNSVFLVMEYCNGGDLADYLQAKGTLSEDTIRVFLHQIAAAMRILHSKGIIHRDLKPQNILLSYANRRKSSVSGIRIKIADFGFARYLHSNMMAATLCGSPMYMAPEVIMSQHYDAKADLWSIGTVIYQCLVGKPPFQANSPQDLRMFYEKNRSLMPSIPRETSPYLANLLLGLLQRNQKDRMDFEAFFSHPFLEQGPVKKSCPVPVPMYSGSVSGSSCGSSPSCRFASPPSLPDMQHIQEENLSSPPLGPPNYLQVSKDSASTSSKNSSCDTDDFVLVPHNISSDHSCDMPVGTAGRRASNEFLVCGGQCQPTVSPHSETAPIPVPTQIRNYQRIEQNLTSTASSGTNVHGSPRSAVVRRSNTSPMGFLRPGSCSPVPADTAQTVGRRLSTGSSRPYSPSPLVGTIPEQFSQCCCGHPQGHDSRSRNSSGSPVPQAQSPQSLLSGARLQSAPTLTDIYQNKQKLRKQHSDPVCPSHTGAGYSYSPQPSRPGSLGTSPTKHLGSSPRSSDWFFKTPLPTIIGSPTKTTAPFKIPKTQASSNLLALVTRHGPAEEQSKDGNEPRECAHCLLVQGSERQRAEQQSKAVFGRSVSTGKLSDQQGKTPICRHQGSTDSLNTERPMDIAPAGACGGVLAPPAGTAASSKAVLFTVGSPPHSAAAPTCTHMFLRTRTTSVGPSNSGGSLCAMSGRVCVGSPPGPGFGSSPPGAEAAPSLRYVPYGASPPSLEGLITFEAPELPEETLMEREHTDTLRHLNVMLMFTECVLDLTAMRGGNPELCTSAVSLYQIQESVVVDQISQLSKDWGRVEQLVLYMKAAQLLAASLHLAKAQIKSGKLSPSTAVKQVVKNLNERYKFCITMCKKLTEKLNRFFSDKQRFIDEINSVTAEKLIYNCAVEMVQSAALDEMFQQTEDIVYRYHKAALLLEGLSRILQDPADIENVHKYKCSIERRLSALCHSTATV
Sequence of SRSF protein kinase 1 (Homo sapiens) (Q96SB4 whole entry): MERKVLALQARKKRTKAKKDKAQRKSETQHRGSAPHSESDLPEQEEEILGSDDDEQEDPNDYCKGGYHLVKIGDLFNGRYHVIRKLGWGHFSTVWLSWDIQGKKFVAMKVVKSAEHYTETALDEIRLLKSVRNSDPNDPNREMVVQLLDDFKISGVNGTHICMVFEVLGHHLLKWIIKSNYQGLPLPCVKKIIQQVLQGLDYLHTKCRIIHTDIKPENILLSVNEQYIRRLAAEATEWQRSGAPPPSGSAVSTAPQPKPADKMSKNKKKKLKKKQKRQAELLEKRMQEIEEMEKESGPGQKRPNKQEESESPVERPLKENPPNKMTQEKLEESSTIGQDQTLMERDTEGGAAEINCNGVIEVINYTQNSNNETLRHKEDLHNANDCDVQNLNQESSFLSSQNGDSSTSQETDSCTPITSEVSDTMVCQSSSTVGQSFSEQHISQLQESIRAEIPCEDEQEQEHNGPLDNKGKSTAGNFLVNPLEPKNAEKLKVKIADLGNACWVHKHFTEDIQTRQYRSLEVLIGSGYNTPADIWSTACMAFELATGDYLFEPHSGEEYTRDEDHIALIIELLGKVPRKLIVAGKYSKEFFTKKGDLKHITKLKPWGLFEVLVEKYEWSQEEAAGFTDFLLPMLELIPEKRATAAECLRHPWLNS
Sequence of Mitogen-activated protein kinase 6 (Homo sapiens) (Q16659 whole entry): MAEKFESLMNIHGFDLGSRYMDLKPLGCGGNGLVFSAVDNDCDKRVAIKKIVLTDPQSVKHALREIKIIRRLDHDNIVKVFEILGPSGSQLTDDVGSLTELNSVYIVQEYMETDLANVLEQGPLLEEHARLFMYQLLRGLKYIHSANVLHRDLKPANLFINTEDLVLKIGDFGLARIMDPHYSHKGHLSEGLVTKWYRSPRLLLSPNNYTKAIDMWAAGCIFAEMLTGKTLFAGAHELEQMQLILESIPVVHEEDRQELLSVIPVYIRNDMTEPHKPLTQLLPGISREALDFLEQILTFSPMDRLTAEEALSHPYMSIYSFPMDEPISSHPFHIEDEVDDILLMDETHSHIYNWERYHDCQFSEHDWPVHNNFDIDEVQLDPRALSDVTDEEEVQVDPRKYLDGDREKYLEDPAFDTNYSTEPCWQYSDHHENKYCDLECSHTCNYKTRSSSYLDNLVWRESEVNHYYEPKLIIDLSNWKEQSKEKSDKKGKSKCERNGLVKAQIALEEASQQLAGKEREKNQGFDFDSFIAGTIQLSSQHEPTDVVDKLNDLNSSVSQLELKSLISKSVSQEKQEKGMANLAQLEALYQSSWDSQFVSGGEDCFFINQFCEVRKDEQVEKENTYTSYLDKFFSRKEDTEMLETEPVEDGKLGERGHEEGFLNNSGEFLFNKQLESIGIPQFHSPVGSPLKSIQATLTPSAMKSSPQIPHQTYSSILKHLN
Sequence of Wee1-like protein kinase (Homo sapiens) (P30291 whole entry, looked up): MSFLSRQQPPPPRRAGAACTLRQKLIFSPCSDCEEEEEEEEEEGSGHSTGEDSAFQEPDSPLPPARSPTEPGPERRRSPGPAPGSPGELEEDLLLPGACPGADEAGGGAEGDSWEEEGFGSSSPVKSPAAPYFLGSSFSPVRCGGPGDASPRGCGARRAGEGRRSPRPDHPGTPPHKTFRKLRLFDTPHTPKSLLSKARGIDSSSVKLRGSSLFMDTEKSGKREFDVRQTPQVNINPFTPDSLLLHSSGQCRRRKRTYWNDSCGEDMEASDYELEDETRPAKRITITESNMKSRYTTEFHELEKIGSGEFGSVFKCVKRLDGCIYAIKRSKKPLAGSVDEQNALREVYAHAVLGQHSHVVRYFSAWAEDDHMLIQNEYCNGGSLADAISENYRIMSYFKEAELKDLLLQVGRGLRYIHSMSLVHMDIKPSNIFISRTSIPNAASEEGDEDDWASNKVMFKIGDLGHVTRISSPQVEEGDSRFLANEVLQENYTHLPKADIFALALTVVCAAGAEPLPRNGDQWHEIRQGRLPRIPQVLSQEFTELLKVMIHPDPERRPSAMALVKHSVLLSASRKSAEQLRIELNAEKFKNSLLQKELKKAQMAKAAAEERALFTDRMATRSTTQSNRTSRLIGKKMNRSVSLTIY
Sequence of Phosphatidylinositol 4,5-bisphosphate 3-kinase catalytic subunit alpha isoform (Homo sapiens), P42336 [H1047L] (P42336 whole entry H1047L, canonical isoform): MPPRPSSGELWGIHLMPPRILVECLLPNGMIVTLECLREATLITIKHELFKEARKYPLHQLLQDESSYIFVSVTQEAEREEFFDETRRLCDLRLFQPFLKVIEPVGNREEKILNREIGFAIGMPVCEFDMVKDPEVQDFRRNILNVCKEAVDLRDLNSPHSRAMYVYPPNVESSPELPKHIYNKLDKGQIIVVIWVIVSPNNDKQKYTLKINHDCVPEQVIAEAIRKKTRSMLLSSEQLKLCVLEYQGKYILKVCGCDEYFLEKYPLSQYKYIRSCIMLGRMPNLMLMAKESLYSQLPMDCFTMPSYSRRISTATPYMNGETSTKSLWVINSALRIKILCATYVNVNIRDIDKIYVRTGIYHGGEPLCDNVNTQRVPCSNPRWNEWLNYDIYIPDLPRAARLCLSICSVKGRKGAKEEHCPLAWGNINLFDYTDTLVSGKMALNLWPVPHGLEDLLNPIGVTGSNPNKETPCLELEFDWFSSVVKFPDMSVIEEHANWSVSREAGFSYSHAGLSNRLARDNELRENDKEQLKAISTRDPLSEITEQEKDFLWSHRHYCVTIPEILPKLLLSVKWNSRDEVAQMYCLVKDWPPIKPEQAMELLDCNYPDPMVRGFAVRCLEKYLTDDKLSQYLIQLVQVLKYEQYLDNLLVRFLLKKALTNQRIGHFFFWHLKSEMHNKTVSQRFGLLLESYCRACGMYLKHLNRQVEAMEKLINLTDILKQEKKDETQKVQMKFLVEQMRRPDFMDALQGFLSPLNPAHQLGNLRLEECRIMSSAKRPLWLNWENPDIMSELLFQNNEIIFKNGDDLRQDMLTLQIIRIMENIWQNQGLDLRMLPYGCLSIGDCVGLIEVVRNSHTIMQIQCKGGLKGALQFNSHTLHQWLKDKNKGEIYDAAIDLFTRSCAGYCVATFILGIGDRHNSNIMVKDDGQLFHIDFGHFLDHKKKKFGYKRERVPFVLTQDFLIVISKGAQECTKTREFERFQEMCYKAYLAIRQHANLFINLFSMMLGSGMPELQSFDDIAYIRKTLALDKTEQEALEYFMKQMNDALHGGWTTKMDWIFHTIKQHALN
Sequence of Glycogen synthase kinase-3 beta (Homo sapiens) (P49841 whole entry, looked up): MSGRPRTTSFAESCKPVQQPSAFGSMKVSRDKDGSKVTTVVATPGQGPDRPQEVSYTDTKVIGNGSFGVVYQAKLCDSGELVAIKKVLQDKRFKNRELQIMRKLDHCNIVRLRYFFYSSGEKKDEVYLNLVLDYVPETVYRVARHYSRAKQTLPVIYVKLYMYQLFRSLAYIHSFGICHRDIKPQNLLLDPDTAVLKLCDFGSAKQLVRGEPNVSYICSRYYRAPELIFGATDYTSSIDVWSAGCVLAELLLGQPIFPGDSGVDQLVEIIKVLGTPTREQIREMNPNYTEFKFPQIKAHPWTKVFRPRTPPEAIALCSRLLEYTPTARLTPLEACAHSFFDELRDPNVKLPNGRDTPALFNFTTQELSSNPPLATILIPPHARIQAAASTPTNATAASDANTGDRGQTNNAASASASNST

`COc1cccc(CNC(=O)c2nc3scc(COCc4ccc(C(=O)O)cc4)c3c(=O)[nH]2)c1` [T-26c] was tested. Which residual activity [1] did it give?
Its residual activity is 85%.

And the residual activity [2]?
The residual activity was 70.5%.

What about the residual activity [3] of the same compound?
Its residual activity is 100%.

And the residual activity [4]?
The residual activity was 100%.

What about the residual activity [5] of the same compound?
The residual activity was 100%.

What about the residual activity [6] of the same compound?
The residual activity was 100%.

What about the residual activity [7] of the same compound?
Its residual activity is 100%.

And the residual activity [8]?
The residual activity was 94.4%.

And the residual activity [9]?
Its residual activity is 100%.

And the residual activity [10]?
The residual activity was 100%.

And the residual activity [11]?
The residual activity was 88%.

What about the residual activity [12] of the same compound?
The residual activity was 91.3%.

What about the residual activity [13] of the same compound?
Its residual activity is 86.1%.

And the residual activity [14]?
The residual activity was 99.9%.

And the residual activity [15]?
Its residual activity is 80%.

And the residual activity [16]?
Its residual activity is 80.2%.

And the residual activity [17]?
The residual activity was 62.6%.

And the residual activity [18]?
The residual activity was 72.9%.

And the residual activity [19]?
The residual activity was 76%.

And the residual activity [20]?
Its residual activity is 59%.

And the residual activity [21]?
The residual activity was 65.5%.

What about the residual activity [22] of the same compound?
Its residual activity is 100%.

What about the residual activity [23] of the same compound?
The residual activity was 83.1%.

What about the residual activity [24] of the same compound?
The residual activity was 100%.

And the residual activity [25]?
Its residual activity is 100%.

What about the residual activity [26] of the same compound?
The residual activity was 98.2%.

What about the residual activity [27] of the same compound?
The residual activity was 100%.

And the residual activity [28]?
Its residual activity is 100%.

And the residual activity [29]?
Its residual activity is 100%.

And the residual activity [30]?
The residual activity was 91.9%.

What about the residual activity [31] of the same compound?
The residual activity was 72.7%.

What about the residual activity [32] of the same compound?
The residual activity was 100%.

What about the residual activity [33] of the same compound?
Its residual activity is 100%.

What about the residual activity [34] of the same compound?
The residual activity was 91.1%.

And the residual activity [35]?
The residual activity was 88%.

And the residual activity [36]?
Its residual activity is 100%.

What about the residual activity [37] of the same compound?
Its residual activity is 69.2%.

And the residual activity [38]?
Its residual activity is 100%.

What about the residual activity [39] of the same compound?
The residual activity was 60.2%.

And the residual activity [40]?
Its residual activity is 94%.

And the residual activity [41]?
The residual activity was 70.8%.

And the residual activity [42]?
Its residual activity is 95.7%.

And the residual activity [43]?
The residual activity was 93.4%.

And the inhibition (Histamine H1 receptor)?
Its inhibition is 50.2%.

What about the inhibition [44] of the same compound?
The inhibition was 29.9%.
